{"source": "patent EP1897542A1", "about": "“Aqueous formulation comprising an antitumor agent” (Sanofi-Aventis, priority 2006, dated 2008)", "key": {"[1]": {"assay": "In vitro hemolytic potential with dog erythrocytes, phosphate buffer vehicle (Example 1)", "assay_type": "cell-based", "conditions": "dog, whole blood, n=5 (mean), percentage of that induced by saponin", "description": "(§1) The following study was performed to evaluate the hemolytic potential of solutions of (2R)-2-[4-(7-bromo-2-quinolyloxy)phenoxy]propanoic acid in a 0.1 M pH 8 phosphate bufferred vehicle at concentrations of 10 mg/mL and 20 mg/mL. Saline (0.9% NaCl) was used as a negative control, and saponin (3% aqueous solution), which is a known inducer of hemolysis, was used as the positive control.\n(§2) Dog whole blood was mixed in a 1:1 ratio and a 9:1 ratio with solutions of the active ingredient in the vehicle and with the vehicles alone. Dog whole blood was also mixed in a 1:1 ratio and a 9:1 ratio with a 3% saponin solution as the positive control and saline (0.9% NaCl) as the negative control.\n(§3) After mixing, tubes were incubated for 30 minutes at 37°C, then centrifuged (3000 t/min.) for 10 minutes. Hemoglobin concentrate was dosed in the supernatant by spectrophotometry UV/visible (Genesis technologies) for the assessment of the in vitro hemolytic potential. The percent of hemolysis was calculated based on the results of the saponin samples."}, "[2]": {"tested_on": "dog erythrocytes", "assay": "In vitro hemolytic potential with dog erythrocytes, phosphate buffer vehicle (Example 1)", "assay_type": "cell-based", "conditions": "10 and 20 mg/mL solutions in 0.1 M pH 8 phosphate buffer", "description": "as §1, §2, §3"}, "[3]": {"tested_on": "dog erythrocytes", "assay": "In vitro hemolytic potential in dog erythrocytes for a formulation containing a cyclodextrin (Example 4)", "assay_type": "cell-based", "conditions": "10 mg/mL Active Ingredient in 0.05M pH 7 phosphate buffer with 10% (w/v) hydroxypropyl beta cyclodextrin, n=6 (mean), percentage of that induced by saponin, 30 min", "description": "Saline (0.9% NaCl) was used as the negative control, and saponin (3% aqueous solution) was used as the positive control.\nas §2, §3"}, "[4]": {"assay": "In vivo study in dogs with phosphate buffer formulation, 30-minute infusion (Example 6)", "design": "species or system beagle dog", "conditions": "0.1M phosphate buffer, single IV infusion over 30 minutes, 1 male and 1 female", "description": "Dosages were 25 and 50 mg/kg. Sampling for plasma level determination was taken for 1 day at the following intervals: end of infusion (0), 30 minutes, 1 hour, 3 hours, 6 hours, and 24 hours after the end of the infusion."}, "[5]": {"assay": "In vivo study in rats with phosphate buffer formulation, 1-hour infusion (Example 7)", "conditions": "400 mg/kg dose, 0.1M phosphate buffer, single IV infusion over 1 hour, day of the infusion", "description": "Dosages were 0 (control), 100, 200, and 400 mg/kg."}, "[6]": {"assay": "Preliminary animal toxicological studies, infusion of simple phosphate buffer formulation", "assay_type": "in vivo", "conditions": "infused at 10 mg/mL or greater as a simple phosphate buffer formulation", "source_text": "(2R)-2-[4-(7-Bromo-2-quinolyloxy)phenoxy]propanoic acid may be administered as a liquid parenteral formulation. […] Since significant hemolysis can cause anemia, the hemolytic effect of (2R)-2-[4-(7-bromo-2-quinolyloxy)phenoxy]propanoic acid is an undesirable property for a pharmaceutical composition."}}, "data": [{"compound": "C[C@@H](Oc1ccc(Oc2ccc3ccc(Br)cc3n2)cc1)C(=O)O", "note": "[Active Ingredient, (2R)-2-[4-(7-bromo-2-quinolyloxy)phenoxy]propanoic acid]", "values": [{"measurement": "hemolysis at 0.5 h", "setting": "[1]; pH 8, 10 mg/mL Active Ingredient in 0.1 M pH 8 phosphate buffer, Blood/Solution ratio 1:1", "result": 24, "unit": "%"}, {"measurement": "hemolysis at 0.5 h", "setting": "[1]; pH 8, 10 mg/mL Active Ingredient in 0.1 M pH 8 phosphate buffer, Blood/Solution ratio 9:1", "result": 4.5, "unit": "%"}, {"measurement": "hemolysis at 0.5 h", "setting": "[1]; pH 8, 20 mg/mL Active Ingredient in 0.1 M pH 8 phosphate buffer, Blood/Solution ratio 1:1", "result": 28, "unit": "%"}, {"measurement": "hemolysis at 0.5 h", "setting": "[1]; pH 8, 20 mg/mL Active Ingredient in 0.1 M pH 8 phosphate buffer, Blood/Solution ratio 9:1", "result": 6.6, "unit": "%"}, {"measurement": "hemolysis of dog erythrocytes (result in words)", "setting": "[2]", "result": "induced hemolysis"}, {"measurement": "Percentage of Hemolysis", "setting": "[3]; Blood/Solution ratio 1:1", "result": 1.8, "unit": "%"}, {"measurement": "Percentage of Hemolysis", "setting": "[3]; Blood/Solution ratio 9:1", "result": 0.5, "unit": "%"}, {"measurement": "visual hemolysis on plasma samples", "setting": "[4]; 25 mg/kg, seen at time 0 and 30 minutes post infusion (all animals), 1 hour (male)", "result": "visual hemolysis was observed"}, {"measurement": "visual hemolysis on plasma samples", "setting": "[4]; 50 mg/kg, seen at time 0, 30 minutes, 1 hour, 3 hours (both animals) and 6 hours (female)", "result": "visual hemolysis was observed"}, {"measurement": "discolored urine (red/brown), animals affected", "setting": "[5]; females", "result": "8 out of 10"}, {"measurement": "discolored urine (red/brown), animals affected", "setting": "[5]; males", "result": "6 out of 10"}, {"measurement": "hemolysis", "setting": "[6]", "result": "cause a degree of hemolysis"}]}]}
